Patent US20230233569A1 (Revolution Medicines, Inc., priority 2020, published 2023)
Values joined by “and” are separate entries in the source; they are usually repeats but may differ in a detail not shown here. Identical values can stand only once. Like-named read-outs stand apart in the source and are kept apart here.

Assays:
Test in all cases: Disruption of BRAF RBD interaction with Ras (FRET / MOA assay, with Cyclophilin A)
Type in all cases: biochemical
[1] = biological target: KRAS G12C (Homo sapiens, UniProt P01116+P62937, G12C)
In short: (§1)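 TR-FRET: nucleotide-loaded K-Ras mutant or WT with Cyclophilin A and BRAF RBD, compound 10-point 3-fold from 30 μM final, 3 h at 25° C, then anti-His Eu (10 nM) and anti-GST APC (50 nM) for 1.5 h. Decreased FRET ratio versus DMSO gives IC50.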

[2] = biological target: KRAS G12D (Homo sapiens, UniProt P01116+P62937, G12D)
In short: as §1

[3] = biological target: KRAS G12S (Homo sapiens, UniProt P01116+P62937, G12S)
In short: as §1

[4] = biological target: KRAS G12V (Homo sapiens, UniProt P01116+P62937, G12V)
In short: as §1

[5] = biological target: KRAS G13C (Homo sapiens, UniProt P01116+P62937, G13C)
In short: as §1

[6] = biological target: KRAS G13D (Homo sapiens, UniProt P01116+P62937, G13D)
In short: as §1

[7] = biological target: KRAS WT (Homo sapiens, UniProt P01116+P62937)
In short: as §1

[8] = biological target: NRAS G12C (Homo sapiens, UniProt P01111+P62937, G12C)
[9] = biological target: KRAS Q61H (Homo sapiens, UniProt P01116+P62937, Q61H); details: KRAS Q61H; read-out: KRAS Q61H FRET data IC50
In short: (§2)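 TR-FRET in 25 mM HEPES pH 7.3, 100 mM NaCl, 5 mM MgCl2, 0.1% BSA: 25 μM Cyclophilin A, 12.5 nM His6-Ras-GMPPNP, 50 nM GST-BRAF RBD with compound (10-point 3-fold series from 30 μM), 3 h at 25° C. Anti-His Eu/anti-GST APC added, 1.5 h more; IC50 from decreased FRET ratio versus DMSO.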

[10] = biological target: NRAS Q61R (Homo sapiens, UniProt P01111+P62937, Q61R); details: NRAS Q61R; read-out: NRAS Q61R FRET data IC50
In short: as §2

[11] = KRAS G12C, read-out: KRAS G12C FRET data IC50
[12] = read-out: KRAS G12D FRET data, IC50
[13] = read-out: KRAS G12S FRET data, IC50
[14] = KRAS G12V, read-out: KRAS G12V FRET data IC50
[15] = KRAS G13C, read-out: KRAS G13C FRET data IC50
[16] = KRAS G13D, read-out: KRAS G13D FRET data IC50
[17] = KRAS WT, read-out: KRAS WT FRET data IC50
[18] = NRAS G12C, read-out: NRAS G12C FRET data IC50

Sequence of KRAS G12D (P01116 1-169 isoform P01116-2 G12D limits assumed): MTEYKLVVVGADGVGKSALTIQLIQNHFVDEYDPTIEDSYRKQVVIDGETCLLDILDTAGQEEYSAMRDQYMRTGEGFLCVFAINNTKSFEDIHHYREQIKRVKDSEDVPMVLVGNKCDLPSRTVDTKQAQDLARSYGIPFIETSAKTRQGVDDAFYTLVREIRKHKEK
Sequence of KRAS G12D (P62937 whole entry): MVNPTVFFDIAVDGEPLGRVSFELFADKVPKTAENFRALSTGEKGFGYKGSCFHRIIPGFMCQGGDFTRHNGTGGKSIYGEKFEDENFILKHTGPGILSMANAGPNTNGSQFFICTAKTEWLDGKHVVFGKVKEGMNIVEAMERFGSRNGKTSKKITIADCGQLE
Sequence of KRAS WT (P01116 1-169 isoform P01116-2 limits assumed): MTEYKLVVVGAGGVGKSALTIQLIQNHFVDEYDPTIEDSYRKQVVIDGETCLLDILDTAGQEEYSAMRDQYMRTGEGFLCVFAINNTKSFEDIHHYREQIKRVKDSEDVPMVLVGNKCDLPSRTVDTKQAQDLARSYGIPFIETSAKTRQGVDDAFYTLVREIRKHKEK
Sequence of KRAS WT (P62937 whole entry): as the sequence (P62937 whole entry) above
Sequence of KRAS Q61H (P01116 1-169 isoform P01116-2 Q61H limits assumed): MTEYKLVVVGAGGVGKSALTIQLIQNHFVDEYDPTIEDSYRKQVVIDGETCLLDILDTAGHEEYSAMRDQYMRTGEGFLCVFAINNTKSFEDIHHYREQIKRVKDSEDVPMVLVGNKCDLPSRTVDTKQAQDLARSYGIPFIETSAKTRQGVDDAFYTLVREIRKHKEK
Sequence of KRAS Q61H (P62937 whole entry): as the sequence (P62937 whole entry) above
Sequence of KRAS G12V (P01116 1-169 isoform P01116-2 G12V limits assumed): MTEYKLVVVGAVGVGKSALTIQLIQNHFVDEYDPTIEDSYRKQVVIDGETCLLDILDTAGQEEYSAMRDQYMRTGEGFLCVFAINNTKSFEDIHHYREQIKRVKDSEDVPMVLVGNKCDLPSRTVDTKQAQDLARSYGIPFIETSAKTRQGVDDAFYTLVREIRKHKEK
Sequence of KRAS G12V (P62937 whole entry): as the sequence (P62937 whole entry) above
Sequence of KRAS G12C (P01116 1-169 isoform P01116-2 G12C): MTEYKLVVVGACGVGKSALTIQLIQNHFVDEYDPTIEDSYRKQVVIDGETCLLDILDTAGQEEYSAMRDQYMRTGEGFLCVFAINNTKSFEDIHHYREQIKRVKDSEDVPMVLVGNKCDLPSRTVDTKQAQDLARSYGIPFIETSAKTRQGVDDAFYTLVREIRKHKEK
Sequence of KRAS G12C (P62937 whole entry): as the sequence (P62937 whole entry) above
Sequence of NRAS G12C (P01111 whole entry G12C): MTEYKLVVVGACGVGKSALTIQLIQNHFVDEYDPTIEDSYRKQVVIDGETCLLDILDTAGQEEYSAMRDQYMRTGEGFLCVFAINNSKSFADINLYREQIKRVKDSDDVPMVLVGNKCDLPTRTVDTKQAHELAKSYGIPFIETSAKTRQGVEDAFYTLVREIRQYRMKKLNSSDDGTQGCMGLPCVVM
Sequence of NRAS G12C (P62937 whole entry): as the sequence (P62937 whole entry) above
Sequence of NRAS Q61R (P01111 whole entry Q61R): as the sequence (P01111 whole entry G12C) above, with C12G, Q61R counted along it
Sequence of NRAS Q61R (P62937 whole entry): as the sequence (P62937 whole entry) above
Sequence of KRAS G13D (P01116 1-169 isoform P01116-2 G13D limits assumed): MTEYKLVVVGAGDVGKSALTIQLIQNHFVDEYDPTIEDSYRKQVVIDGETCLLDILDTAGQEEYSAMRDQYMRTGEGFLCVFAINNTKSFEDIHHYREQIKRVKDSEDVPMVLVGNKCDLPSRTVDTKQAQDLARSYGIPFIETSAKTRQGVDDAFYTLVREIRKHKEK
Sequence of KRAS G13D (P62937 whole entry): as the sequence (P62937 whole entry) above
Sequence of KRAS G13C (P01116 1-169 isoform P01116-2 G13C): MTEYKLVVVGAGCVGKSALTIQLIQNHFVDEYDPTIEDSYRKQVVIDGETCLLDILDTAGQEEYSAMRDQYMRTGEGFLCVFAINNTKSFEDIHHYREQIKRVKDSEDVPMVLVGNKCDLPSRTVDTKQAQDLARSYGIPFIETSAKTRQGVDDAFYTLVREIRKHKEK
Sequence of KRAS G13C (P62937 whole entry): as the sequence (P62937 whole entry) above
Sequence of KRAS G12S (P01116 1-169 isoform P01116-2 G12S limits assumed): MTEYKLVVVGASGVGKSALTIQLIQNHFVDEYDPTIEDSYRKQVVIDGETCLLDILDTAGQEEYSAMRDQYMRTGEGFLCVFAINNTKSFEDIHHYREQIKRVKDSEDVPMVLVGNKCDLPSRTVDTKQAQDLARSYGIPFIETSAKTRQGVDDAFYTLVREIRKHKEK
Sequence of KRAS G12S (P62937 whole entry): as the sequence (P62937 whole entry) above

| SMILES | IC50 ([1]; KRAS G12C FRET data IC50, KRAS G12C) | IC50 ([2]; KRAS G12D FRET data, IC50) | IC50 ([3]; KRAS G12S FRET data, IC50) | IC50 ([4]; KRAS G12V FRET data IC50, KRAS G12V) | IC50 ([5]; KRAS G13C FRET data IC50, KRAS G13C) | IC50 ([6]; KRAS G13D FRET data IC50, KRAS G13D) | IC50 ([7]; KRAS WT FRET data IC50, KRAS WT) | IC50 ([8]; NRAS G12C FRET data IC50, NRAS G12C) | IC50 [9] | IC50 [10] | IC50 [1, 11] | IC50 [2, 12] | IC50 [3, 13] | IC50 [4, 14] | IC50 [5, 15] | IC50 [6, 16] | IC50 [7, 17] | IC50 [8, 18] |
| --- | --- | --- | --- | --- | --- | --- | --- | --- | --- | --- | --- | --- | --- | --- | --- | --- | --- | --- |
| C=CC(=O)N1CCO[C@@]2(CCN(C(=O)N(C)[C@H](C(=O)N[C@H]3Cc4nc(cs4)-c4ccc5c(c4)c(c(-c4cccnc4[C@H](C)OC)n5CC(F)(F)F)CC(C)(C)COC(=O)C4CCCN(N4)C3=O)C(C)C)C2)C1 (stereo partly drawn) [Example A594] | 10 to 100 nM | 100 to 1000 nM | 100 to 1000 nM | 100 to 1000 nM | 10 to 100 nM | 100 to 1000 nM | 10 to 100 nM | 10 to 100 nM | 10 to 100 nM | 10 to 100 nM |  |  |  |  |  |  |  |  |
| C=CC(=O)N1CCOC2(CCN(C(=O)N(C)[C@H](C(=O)N[C@H]3Cc4nc(n(C)n4)-c4ccc5c(c4)c(c(-c4cccnc4[C@H](C)OC)n5CC(F)(F)F)CC(C)(C)COC(=O)C4CCCN(N4)C3=O)C(C)C)CC2)C1 (stereo partly drawn) [Example A606] |  |  |  |  |  |  |  |  | 10 to 100 nM | 100 to 1000 nM | 100 to 1000 nM | 1000 to 10000 nM | 100 to 1000 nM | 100 to 1000 nM | 10 to 100 nM | 100 to 1000 nM | 100 to 1000 nM | 100 to 1000 nM |
| C=CC(=O)N1CCO[C@H]2CN(C(=O)N(C)[C@H](C(=O)N[C@H]3Cc4cccc(n4)-c4ccc5c(c4)c(c(-c4cccnc4[C@H](C)OC)n5CC(F)(F)F)CC(C)(C)COC(=O)C4CCCN(N4)C3=O)C(C)C)C[C@H]21 (stereo partly drawn) [Example A595] |  |  |  |  |  |  |  |  | 100 to 1000 nM | 100 to 1000 nM | 10 to 100 nM | 1000 to 10000 nM | 1000 to 10000 nM | 1000 to 10000 nM | 10 to 100 nM | 1000 to 10000 nM | 100 to 1000 nM | 10 to 100 nM |
| CC#CC(=O)N1CC[C@H](C(=O)N(C)[C@H](C(=O)N[C@H]2Cc3nc(cs3)-c3ccc4c(c3)c(c(-c3cccnc3[C@H](C)OC)n4CC)CC(C)(C)COC(=O)[C@@H]3CCCN(N3)C2=O)C(C)C)C1 [Example A168] |  |  |  |  |  |  |  |  | 1000 to 10000 nM | 1000 to 10000 nM | 100 to 1000 nM | > 10000 nM | 1000 to 10000 nM | 1000 to 10000 nM | 1000 to 10000 nM | > 10000 nM | 1000 to 10000 nM | 1000 to 10000 nM |
| CCn1c(-c2cccnc2[C@H](C)OC)c2c3cc(ccc31)-c1cccc(c1)C[C@H](NC(=O)[C@H](C(C)C)N1CC[C@]3(CCN(C(=O)C#C[C@@H]4COCCN4C4COC4)C3)C1=O)C(=O)N1CCC[C@H](N1)C(=O)OCC(C)(C)C2 [Example A565] |  |  |  |  |  |  |  |  | 1000 to 10000 nM | > 10000 nM | 100 to 1000 nM | > 10000 nM | 1000 to 10000 nM | 1000 to 10000 nM | 1000 to 10000 nM | > 10000 nM | > 10000 nM | 100 to 1000 nM |
| C=CC(=O)N1CC[C@@]2(CCN2C(=O)N(C)[C@H](C(=O)N[C@H]2Cc3nc(cs3)-c3ccc4c(c3)c(c(-c3cccnc3[C@H](C)OC)n4CC)CC(C)(C)COC(=O)C3CCCN(N3)C2=O)N(C)C)C1 (single isomer, unassigned) [Example A661] |  |  |  |  |  |  |  |  | 10 to 100 nM | 100 to 1000 nM | 10 to 100 nM | 1000 to 10000 nM | 100 to 1000 nM | 1000 to 10000 nM | 100 to 1000 nM | 100 to 1000 nM | 100 to 1000 nM | 10 to 100 nM |
| CCn1c(-c2cccnc2[C@H](C)OC)c2c3cc(ccc31)-c1csc(n1)C[C@H](NC(=O)[C@H](COC1CN(C(=O)C#CC(C)(C)N(C)C)C1)OC)C(=O)N1CCC[C@H](N1)C(=O)OCC(C)(C)C2 (atropisomer, axis not shown) [Example A705] |  |  |  |  |  |  |  |  | 1000 to 10000 nM | > 10000 nM | < 10 nM | > 10000 nM | 1000 to 10000 nM | 1000 to 10000 nM | 1000 to 10000 nM | > 10000 nM | 1000 to 10000 nM | < 10 nM |
| C=CC(=O)N1CC[C@H](C(=O)N(C)[C@H](C(=O)N[C@H]2Cc3cc(O)cc(c3)-c3cnc4c(c3)c(c(-c3ccccc3CCOC)n4CC)CC(C)(C)COC(=O)[C@@H]3CCCN(N3)C2=O)C(C)C)C1 [Example A210] |  |  |  |  |  |  |  |  | 1000 to 10000 nM | > 10000 nM | 100 nM to 1 µM and 1 µM to 10 µM and > 10 µM (2×) | > 10000 nM | 1 µM to 10 µM and > 10 µM (3×) | 1 µM to 10 µM and > 10 µM (3×) | > 10000 nM | > 10000 nM | > 10000 nM | 100 nM to 1 µM and 1 µM to 10 µM and > 10 µM (2×) |
| C=CC(=O)N1CCO[C@H]2CCN(C(=O)N(C)[C@H](C(=O)N[C@H]3Cc4nc(cs4)-c4ccc5c(c4)c(c(-c4cccnc4[C@H](C)OC)n5CC)CC(C)(C)COC(=O)C4CCCN(N4)C3=O)C(C)C)C[C@@H]21 (stereo partly drawn) [Example A609] |  |  |  |  |  |  |  |  | 10 to 100 nM | 10 to 100 nM | < 10 nM | 100 to 1000 nM | 10 to 100 nM | 10 to 100 nM | 10 to 100 nM | 100 to 1000 nM | 10 to 100 nM | < 10 nM |
| C=CC(=O)N1CCC2(C1)CN(C(=O)N(C)[C@H](C(=O)N[C@H]1Cc3nc(cs3)-c3ccc4c(c3)c(c(-c3cccnc3[C@H](C)OC)n4CC(F)(F)F)CC(C)(C)COC(=O)C3CCCN(N3)C1=O)C(C)C)C2 (stereo partly drawn) [Example A603] |  |  |  |  |  |  |  |  | 10 to 100 nM | 10 to 100 nM | 10 to 100 nM | 100 to 1000 nM | 100 to 1000 nM | 100 to 1000 nM | 10 to 100 nM | 100 to 1000 nM | 10 to 100 nM | 10 to 100 nM |
| C=CC(=O)N1CCOC2(CCN(C(=O)N(C)[C@H](C(=O)N[C@H]3Cc4cccc(c4)-c4ccc5c(c4)c(c(-c4cccnc4[C@H](C)OC)n5CC(F)(F)F)CC(C)(C)COC(=O)C4CCCN(N4)C3=O)C(C)C)CC2)C1 (stereo partly drawn) [Example A608] |  |  |  |  |  |  |  |  | 10 to 100 nM | 100 to 1000 nM | 100 to 1000 nM | 100 to 1000 nM | 100 to 1000 nM | 100 to 1000 nM | 10 to 100 nM | 100 to 1000 nM | 100 to 1000 nM | 100 to 1000 nM |
| C=CC(=O)N1CC[C@@H](N(C)C(=O)N(C)[C@H](C(=O)N[C@H]2Cc3nc(cs3)-c3ccc4c(c3)c(c(-c3cccnc3[C@H](C)OC)n4CC(F)(F)F)CC(C)(C)COC(=O)[C@@H]3CCCN(N3)C2=O)C(C)C)C1 (atropisomer, axis not shown) [Example A728] |  |  |  |  |  |  |  |  | 100 to 1000 nM | 100 to 1000 nM | 100 to 1000 nM | 1000 to 10000 nM | 100 to 1000 nM | 100 to 1000 nM | 100 to 1000 nM | 1000 to 10000 nM | 100 to 1000 nM | 100 to 1000 nM |
